# ChEMBL document CHEMBL1201862, “PubChem BioAssay data set” (2004)
#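 Briefly, cells in 96-well plates were exposed to five compound concentrations for 48 h, and endpoints were estimated by linear interpolation. GI50 = concentration required for 50% inhibition of growth.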 Activity calls are given as the source filed them. No stated cut-off is given here; in the data, active = GI50 up to about 1.1 µM and inactive = higher.
# Tests used:
# Assay in all cases: NCI anticancer screen, dose series, 48 h
# [1] = system: UACC-257
# [2] = system: MDA-N
# [3] = system: LOX IMVI
# [4] = system: 786-0
# [5] = system: CAKI-1
# [6] = system: RXF 393
# [7] = system: MDA-MB-435
# [8] = system: SK-OV-3
# [9] = system: RPMI-8226
# [10] = system: HCC 2998
# [11] = system: Malme-3M
# [12] = system: HOP-92
# [13] = system: COLO 205
# [14] = system: NCI/ADR-RES
# [15] = system: KM12
# [16] = system: OVCAR-4
# [17] = system: SNB-19
# [18] = system: CCRF-CEM
# [19] = system: T47D
Structure (SMILES),GI50 [1],GI50 [2],GI50 [3],GI50 [4],GI50 [5],GI50 [6],GI50 [7],GI50 [8],GI50 [9],GI50 [10],GI50 [11],GI50 [12],GI50 [13],GI50 [14],GI50 [15],GI50 [16],GI50 [17],GI50 [18],GI50 [19]
Cc1cc(Cl)ccc1OCC(=O)Oc1c(Cl)c(Cl)c(Cl)c(Cl)c1Cl,19.6 µM (inactive),26.2 µM (inactive),22.5 µM (inactive),29.4 µM (inactive),33 µM (inactive),18.7 µM (inactive),24.2 µM (inactive),27.9 µM (inactive),21.9 µM (inactive),25.2 µM (inactive),19.2 µM (inactive),17.3 µM (inactive),27.8 µM (inactive),25.4 µM (inactive),23.2 µM (inactive),27.3 µM (inactive),26.4 µM (inactive),–,–
NC(Cc1ccccc1)P(=O)(O)O (configuration not stated),> 100 µM (inactive),> 100 µM (inactive),> 100 µM (inactive),> 100 µM (inactive),> 100 µM (inactive),> 100 µM (inactive),> 100 µM (inactive),–,> 100 µM (inactive),–,> 100 µM (inactive),> 100 µM (inactive),–,> 100 µM (inactive),> 100 µM (inactive),> 100 µM (inactive),> 100 µM (inactive),> 100 µM (inactive),> 100 µM (inactive)
COc1ccc(NC(C)=O)c(C(O)CCNC(C)=O)c1 (configuration not stated),> 100 µM (inactive),> 100 µM (inactive),> 100 µM (inactive),> 100 µM (inactive),> 100 µM (inactive),> 100 µM (inactive),> 100 µM (inactive),> 100 µM (inactive),> 100 µM (inactive),–,–,> 100 µM (inactive),> 100 µM (inactive),> 100 µM (inactive),> 100 µM (inactive),> 100 µM (inactive),> 100 µM (inactive),> 100 µM (inactive),> 100 µM (inactive)
O=S(=O)([C-]([I+]c1ccccc1)S(=O)(=O)C(F)(F)C(F)(F)C(F)(F)C(F)(F)F)C(F)(F)C(F)(F)C(F)(F)C(F)(F)F,17.6 µM (inactive),–,14.4 µM (inactive),14.9 µM (inactive),13.2 µM (inactive),–,19.3 µM (inactive),16.7 µM (inactive),3.54 µM (inactive),20 µM (inactive),11 µM (inactive),8.77 µM (inactive),6.64 µM (inactive),24.3 µM (inactive),21.5 µM (inactive),2.95 µM (inactive),15.2 µM (inactive),4.06 µM (inactive),11.1 µM (inactive)
CCC1(c2ccc(OC)c(OC)c2)CCN(S(=O)(=O)c2ccc(C)cc2)C1 (configuration not stated),> 100 µM (inactive),> 100 µM (inactive),> 100 µM (inactive),> 100 µM (inactive),> 100 µM (inactive),> 100 µM (inactive),82.6 µM (inactive),> 100 µM (inactive),–,> 100 µM (inactive),–,–,> 100 µM (inactive),72.8 µM (inactive),33.3 µM (inactive),39.4 µM (inactive),> 100 µM (inactive),> 100 µM (inactive),> 100 µM (inactive)
CN1c2ccccc2C(=O)NC12CCN(Cc1ccccc1)CC2,59.6 µM (inactive),–,46 µM (inactive),62.4 µM (inactive),–,> 100 µM (inactive),63.1 µM (inactive),84.9 µM (inactive),47.2 µM (inactive),83.6 µM (inactive),87.1 µM (inactive),18.3 µM (inactive),35.4 µM (inactive),> 100 µM (inactive),46 µM (inactive),80.2 µM (inactive),27.5 µM (inactive),35.6 µM (inactive),70.3 µM (inactive)
CC(N/N=C(\S)N1CCCCCC1)c1cccnn1 (configuration not stated),0.2 µM (active),0.684 µM (active),0.304 µM (active),0.394 µM (active),0.395 µM (active),0.228 µM (active),0.61 µM (active),0.409 µM (active),0.155 µM (active),2.45 µM (inactive),0.192 µM (active),–,0.146 µM (active),0.409 µM (active),0.525 µM (active),0.348 µM (active),0.381 µM (active),0.112 µM (active),0.163 µM (active)
CCN(CC)Cc1cc(Nc2ccnc3ccc4c(nnn4C)c23)ccc1O,14.8 µM (inactive),11.5 µM (inactive),11.9 µM (inactive),7.14 µM (inactive),13.5 µM (inactive),11.5 µM (inactive),–,14.1 µM (inactive),–,1.75 µM (inactive),13 µM (inactive),–,6.7 µM (inactive),19 µM (inactive),14.9 µM (inactive),7.6 µM (inactive),5.55 µM (inactive),5.06 µM (inactive),23.9 µM (inactive)
C=CCn1c(S)nnc1C12CC3CC(CC(C3)C1)C2,52.2 µM (inactive),45.4 µM (inactive),86.5 µM (inactive),> 100 µM (inactive),–,> 100 µM (inactive),48.9 µM (inactive),> 100 µM (inactive),36.7 µM (inactive),76.4 µM (inactive),> 100 µM (inactive),–,> 100 µM (inactive),55.1 µM (inactive),75.5 µM (inactive),58.7 µM (inactive),> 100 µM (inactive),20.1 µM (inactive),32.8 µM (inactive)
CCCN(CCC)C(=O)c1c(N2CCN(C)CC2)c2cccnc2n2c(C)cnc12,> 100 µM (inactive),> 100 µM (inactive),> 100 µM (inactive),> 100 µM (inactive),60.8 µM (inactive),24.8 µM (inactive),> 100 µM (inactive),–,> 100 µM (inactive),–,> 100 µM (inactive),> 100 µM (inactive),> 100 µM (inactive),> 100 µM (inactive),> 100 µM (inactive),> 100 µM (inactive),27.5 µM (inactive),> 100 µM (inactive),14.8 µM (inactive)
CCOC(=O)C(Cc1ccccc1)(Cc1ccc(O)cn1)NC(=O)c1ccccc1 (configuration not stated),23.5 µM (inactive),6.27 µM (inactive),19.8 µM (inactive),24.9 µM (inactive),26.2 µM (inactive),23.8 µM (inactive),9.51 µM (inactive),30.6 µM (inactive),25.9 µM (inactive),25.1 µM (inactive),14.2 µM (inactive),18.5 µM (inactive),24.4 µM (inactive),26.4 µM (inactive),17.5 µM (inactive),27.4 µM (inactive),32 µM (inactive),7.03 µM (inactive),–
Cc1cc(Cl)cc2c1NC(=O)/C2=N\Nc1ccccc1[N+](=O)[O-],> 100 µM (inactive),> 100 µM (inactive),84.7 µM (inactive),54.6 µM (inactive),> 100 µM (inactive),> 100 µM (inactive),> 100 µM (inactive),> 100 µM (inactive),> 100 µM (inactive),> 100 µM (inactive),–,27 µM (inactive),> 100 µM (inactive),–,> 100 µM (inactive),> 100 µM (inactive),> 100 µM (inactive),21.1 µM (inactive),> 100 µM (inactive)
CO[C@]12C#CC=CC#C[C@@H](O)[C@]3(CCC1)O[C@@]23c1cccc(O)c1,> 100 µM (inactive),> 100 µM (inactive),> 100 µM (inactive),> 100 µM (inactive),> 100 µM (inactive),> 100 µM (inactive),> 100 µM (inactive),> 100 µM (inactive),> 100 µM (inactive),> 100 µM (inactive),–,–,> 100 µM (inactive),> 100 µM (inactive),> 100 µM (inactive),> 100 µM (inactive),51.3 µM (inactive),–,> 100 µM (inactive)
COC(O)C(=O)c1c2c(cc3c1CCC3)CCC2 (configuration not stated),> 100 µM (inactive),> 100 µM (inactive),> 100 µM (inactive),> 100 µM (inactive),> 100 µM (inactive),–,> 100 µM (inactive),> 100 µM (inactive),55.1 µM (inactive),> 100 µM (inactive),> 100 µM (inactive),–,> 100 µM (inactive),> 100 µM (inactive),70.1 µM (inactive),> 100 µM (inactive),> 100 µM (inactive),55 µM (inactive),> 100 µM (inactive)
CN(C)CCNc1nc(-c2ccc3ccccc3c2)nc2[nH]cnc12,6.9 µM (inactive),10.7 µM (inactive),4.55 µM (inactive),10 µM (inactive),4.89 µM (inactive),11.6 µM (inactive),11 µM (inactive),7.48 µM (inactive),22.2 µM (inactive),1.99 µM (inactive),4.51 µM (inactive),–,7.55 µM (inactive),7.33 µM (inactive),4.8 µM (inactive),10.7 µM (inactive),14 µM (inactive),9.27 µM (inactive),12.5 µM (inactive)
c1ccc(CSC2(SCc3ccccc3)CCCCC2)cc1,> 10 µM (inactive),> 10 µM (inactive),> 10 µM (inactive),> 10 µM (inactive),> 10 µM (inactive),> 10 µM (inactive),–,> 10 µM (inactive),> 10 µM (inactive),> 10 µM (inactive),> 10 µM (inactive),> 10 µM (inactive),> 10 µM (inactive),> 10 µM (inactive),> 10 µM (inactive),> 10 µM (inactive),> 10 µM (inactive),> 10 µM (inactive),> 10 µM (inactive)
